Experimental findings from article PMC9635472, “Design, synthesis, and biological evaluation of novel ciprofloxacin derivatives as potential anticancer agents targeting topoisomerase II enzyme” (Journal of Enzyme Inhibition and Medicinal Chemistry, 2022) are described below.

One experiment addresses T1, human DNA Topo II (Homo sapiens, UniProt P11388).
T1 construct: purchased USB Corp., USA
Kind of experiment: In vitro DNA Topo II-mediated relaxation assay (supercoiled pBR322). It is filed as biochemical. Particulars: for IC50: means of three experiments, read-out: Topo II IC50 (µM*±SD); for inhibition at 0.1 µM / inhibition at 1 µM / inhibition at 10 µM / inhibition at 100 µM: recombinant Topo II relaxation; for inhibition at 0.1 µM: compound at 0.1 μM, read-out: Percentage of inhibition of Topo II, 0.1 μM; for inhibition at 1 µM: compound at 1 μM, read-out: Percentage of inhibition of Topo II, 1 μM; for inhibition at 10 µM: compound at 10 μM, read-out: Percentage of inhibition of Topo II, 10 μM; for inhibition at 100 µM: compound at 100 μM, read-out: Percentage of inhibition of Topo II, 100 μM. As for the experimental part:
DNA Topo II inhibitory activities of the targeted compounds were measured as follows. A mixture of 100 ng of supercoiled pBR322 plasmid DNA (Fermentas, USA) and 2 units of human DNA Topo II (USB Corp., USA) was incubated with and without the prepared compounds in the assay buffer (10 µM Tris-HCl pH 7.9) containing 50 µM NaCl, 4 µM MgCl2, 1 µM EDTA, 1 µM ATP, and 15 mg/ml bovine serum albumin for 30 min at 37 °C. The reaction in a final volume of 10 µl was terminated by the addition of 4 µl of 6 µM EDTA. DNA samples were then electrophoresed on 1% agarose gel containing 0.5 µg/ml ethidium bromide in gel and buffer at high voltage (100–250 v) until the dye front has migrated about 4–6 cm down the gel. with a running buffer of TAE Tris-acetate– EDTA (TAE). Gels were stained for 15 min in water. DNA bands were visualised by transillumination with UV light and quantitated using AlphaI-maker TM (Alpha Innotech Corporation).
Well-known Topo II inhibitor doxorubicin was used as a positive control. The reaction products of Topo II relaxation assays were analysed by electrophoretic mobility and developed in ethidium bromide in the presence of UV light. The inhibitory activities were evaluated at 4 concentrations of 100, 10, 1, and 0.1 μM for all compounds as shown in (Figure 6). Topo II inhibitory activities of the tested compounds are summarised in (Table 2).

The subject of a further experiment is active caspase-3. Kind of experiment: Active caspase-3 ELISA in T-24 cells. Particulars: 6 at 5.68 μM, 8a at 3.36 μM; for Caspase-3 conc. (pg/ml* ± SD): means of three experiments. It is filed as cell-based, human. As to the method: The level of the apoptotic marker caspase-3 was measured using The Invitrogen Caspase-3 (active) Human ELISA Kit. The procedure of the used kit was done according to the manufacturer’s instructions.
Caspase-3 (a key effector enzyme) plays an important role in apoptosis since its activation leads to catalysing specific enzymes responsible for DNA fragmentation, which leads to cell death. Apoptosis induction in T-24 cells by compounds 6 and 8a was investigated via caspase 3, compared to doxorubicin as a reference drug.

Structures are written as SMILES.

T1 sequence (P11388 whole entry): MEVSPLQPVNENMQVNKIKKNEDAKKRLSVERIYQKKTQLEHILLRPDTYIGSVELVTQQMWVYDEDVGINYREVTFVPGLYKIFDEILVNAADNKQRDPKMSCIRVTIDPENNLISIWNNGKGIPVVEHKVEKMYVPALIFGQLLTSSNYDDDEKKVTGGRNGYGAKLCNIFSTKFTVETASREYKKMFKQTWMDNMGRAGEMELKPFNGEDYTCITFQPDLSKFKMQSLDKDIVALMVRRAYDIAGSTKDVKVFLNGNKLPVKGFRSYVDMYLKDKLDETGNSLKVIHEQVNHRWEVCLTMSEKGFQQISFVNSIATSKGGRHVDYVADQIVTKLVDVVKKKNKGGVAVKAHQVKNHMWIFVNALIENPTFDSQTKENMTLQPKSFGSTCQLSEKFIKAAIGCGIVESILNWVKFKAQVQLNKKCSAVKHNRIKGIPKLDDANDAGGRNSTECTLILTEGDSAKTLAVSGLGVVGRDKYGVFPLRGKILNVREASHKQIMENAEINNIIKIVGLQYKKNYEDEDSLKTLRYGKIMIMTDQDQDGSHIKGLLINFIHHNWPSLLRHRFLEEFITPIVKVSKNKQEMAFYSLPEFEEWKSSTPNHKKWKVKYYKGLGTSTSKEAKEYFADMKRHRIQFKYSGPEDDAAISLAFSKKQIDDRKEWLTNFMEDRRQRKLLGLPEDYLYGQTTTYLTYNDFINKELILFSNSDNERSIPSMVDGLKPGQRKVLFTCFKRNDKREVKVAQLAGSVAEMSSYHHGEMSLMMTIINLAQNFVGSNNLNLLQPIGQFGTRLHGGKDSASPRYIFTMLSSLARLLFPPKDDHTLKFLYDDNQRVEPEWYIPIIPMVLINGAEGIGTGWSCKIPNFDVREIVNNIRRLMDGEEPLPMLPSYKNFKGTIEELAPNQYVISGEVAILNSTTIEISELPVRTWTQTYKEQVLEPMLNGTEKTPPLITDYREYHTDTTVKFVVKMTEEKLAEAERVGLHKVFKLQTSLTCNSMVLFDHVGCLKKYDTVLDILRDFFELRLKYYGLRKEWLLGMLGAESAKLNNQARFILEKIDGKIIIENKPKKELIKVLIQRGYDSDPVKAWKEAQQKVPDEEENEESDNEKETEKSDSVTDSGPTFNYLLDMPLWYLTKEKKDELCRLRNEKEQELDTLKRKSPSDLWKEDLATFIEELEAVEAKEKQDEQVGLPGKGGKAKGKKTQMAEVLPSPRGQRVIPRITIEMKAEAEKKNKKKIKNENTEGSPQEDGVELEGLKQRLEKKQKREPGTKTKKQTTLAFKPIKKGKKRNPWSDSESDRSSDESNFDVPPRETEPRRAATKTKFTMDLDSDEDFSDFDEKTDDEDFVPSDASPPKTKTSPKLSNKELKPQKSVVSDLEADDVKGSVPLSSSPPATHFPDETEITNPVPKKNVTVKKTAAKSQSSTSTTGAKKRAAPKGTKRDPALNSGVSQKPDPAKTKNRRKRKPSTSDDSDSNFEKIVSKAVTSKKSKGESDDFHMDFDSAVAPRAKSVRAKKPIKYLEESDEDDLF

Consider `O=C1CC(=O)N(C(=O)CN2CCN(c3cc4c(cc3F)c(=O)c(C(=O)O)cn4C3CC3)CC2)N1` [Compound 6, 1-cyclopropyl-7-(4-(2-(3,5-dioxopyrazolidin-1-yl)-2-oxoethyl)piperazin-1-yl)-6-fluoro-4-oxo-1,4-dihydroquinoline-3-carboxylic acid], for which, at human DNA Topo II, the IC50 (in general, the point on the concentration scale where inhibition reaches its midpoint) turned out to be 0.92 ± 0.05 µM; the inhibition – broadly, the relative decrease from the control value, in per cent – at 0.1 µM is 28%; the inhibition at 1 µM amounted to 51.9%; the inhibition at 10 µM was 76.3%. Besides, the inhibition at 100 µM at human DNA Topo II was 87.4%. Besides, in the experiment on active caspase-3, the “increase in level of active caspase-3 compared to the control” value is listed as 5.23 fold and the “Caspase-3 conc. (pg/ml* ± SD)” value was found to be 362.9 ± 8.58 pg/mL.

Regarding `O=C(CN1CCN(c2cc3c(cc2F)c(=O)c(C(=O)O)cn3C2CC2)CC1)NN=C1C(=O)Nc2ccccc21` [Compound 8a, 1-Cyclopropyl-6-fluoro-4-oxo-7-(4-(2-oxo-2-(2-(2-oxoindolin-3-ylidene)hydrazinyl)ethyl)piperazin-1-yl)-1,4-dihydroquinoline-3-carboxylic acid], at human DNA Topo II, the IC50 was 0.74 ± 0.04 µM, the inhibition at 0.1 µM was found to be 32.5%, the inhibition at 1 µM is 50.3% and the inhibition at 10 µM is 77.4%. Also, the inhibition at 100 µM at human DNA Topo II was 91.6%. Moreover, in the experiment with active caspase-3, the “increase in level of active caspase-3 compared to the control” value was 7.6 fold and the “Caspase-3 conc. (pg/ml* ± SD)” value was determined as 527.6 ± 8.39 pg/mL.
